Test results: US20250382346A1, “NEURONAL PROMOTERS AND USES THEREOF” (priority 2023, published 2025)
“Also recorded” adds a separate entry of the source.

T1: rM3Ds (Rattus norvegicus, UniProt P08483, A177S/A238G/A489L/DEL261-437/DEL441-478/E258S/I253V/I483M/INS256[…]/K178L/K182A/K255R/K484R/K486H/L173F/L482A/M480V/R171S/R176Q/R179M/S481M/T174R/T181R/T257A/Y148C)
T1 sequence (P08483 with tags, fused parts or gaps Y148C/R171S/L173F/T174R/R176Q/A177S/K178L/R179M/T181R/K182A/A238G/I253V/K255R/INS256[…]/T257A/E258S/DEL261-437/DEL441-478/M480V/S481M/L482A/I483M/K484R/K486H/A489L): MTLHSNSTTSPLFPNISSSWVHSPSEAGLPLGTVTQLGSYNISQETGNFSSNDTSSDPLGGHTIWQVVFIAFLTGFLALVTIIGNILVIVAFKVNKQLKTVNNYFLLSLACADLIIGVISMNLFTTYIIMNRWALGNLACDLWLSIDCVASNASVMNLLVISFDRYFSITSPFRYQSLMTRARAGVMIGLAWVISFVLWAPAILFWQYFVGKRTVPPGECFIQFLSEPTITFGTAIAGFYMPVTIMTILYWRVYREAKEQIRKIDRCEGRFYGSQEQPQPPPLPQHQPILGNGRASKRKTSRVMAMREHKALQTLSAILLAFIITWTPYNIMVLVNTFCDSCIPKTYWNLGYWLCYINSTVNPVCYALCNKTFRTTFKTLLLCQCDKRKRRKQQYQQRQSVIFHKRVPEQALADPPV


Experiments:
[1] = Locomotion test in naïve macaques (no viral injection); format: in vivo; conditions: DCZ 0.3 mg/kg i.m.
rM3Ds [2] = target: T1, rM3Ds
Procedure: Monkeys were continuously monitored by veterinarians after lesion.
Dyskinesia score criteria were: 0: Absent. 1: Mild, fleeting, present <30% of the observation period.
Each block included ten continuous trials.
Customized surface EMG electrodes were used for EMG recordings. […] The recording procedure was conducted immediately after DCZ infusions.

[3] = Blood test of liver- and kidney-related factors during DCZ treatment; format: in vivo, macaques; conditions: n=3 monkeys
Description: FIG. 36A-36F depict effects of D1-MSN activation on dyskinesia-like behavior and health state-related blood factors in parkinsonian macaques. FIG. 36A illustrates quantitation of dyskinesia score at 2 months, 4 months, and 8 months after treatment with DCZ. n=3 monkeys per group.
Intriguingly, many of the symptoms were greatly reversed after systemic deschloroclozapine (DCZ) administration. DCZ is a potent brain-penetrable agonist for rM3Ds with reduced off-targeting binding compared to CNO, and was administered to activate the DREADD system in the macaque brain.

[4] = CSF concentration of DCZ by LC-MS; conditions: 24 hours after drug infusion, 0.3 mg/kg i.m.
rM3Ds [5] = target: T1, rM3Ds; assay: In vivo electrophysiological recording in caudate/putamen of anesthetized macaques, rM3Ds; parameters: 2A-EYFP (C); expressed in transfected cells; host or cells: neurons (striatal D1-MSNs) of mice or cynomolgus macaques, transduced in vivo by nigral AAV8R12-G88P7-rM3Ds-2A-EYFP; conditions: MPP+ lesioned macaques, CNO 36 cells, DCZ 31 cells
Procedure: • Electrophysiological recording was performed through a recording chamber while the monkey was anesthetized. Neural responses were recorded by a 16-channel linear probe (Plexon Inc, Uprobe) driven by a mechanical microdrive (Alpha Omega, FlexMT). Signals were passed through a head stage (Plexon Inc, HST/16V-G20 LN) and then split and filtered between 300 Hz and 5 kHz to identify spiking activity with an amplifier system (Plexon Inc, OmniPlex). Detected spikes were then sorted by commercially available software (Plexon Inc, Offline Sorter) for further analysis. To quantify the effect of CNO/DCZ injection, neural activity was recorded for 60 minutes following CNO/DCZ injection. The response time-course for each channel was obtained by counting the spikes within every 10-minute window and then normalizing to the maximal.
To determine the effect of CNO/DCZ injection on the direction of signal change, we performed Pearson correlation between neural responses and time using the ‘corr’ function in Matlab, which generates the correlation coefficient ‘r’ and significant level ‘p’. A neuron was considered to have “Increased” activity when r>0 and p<0.05; and considered to have “Decreased” activity when r<0 and p<0.05. Otherwise, neurons were considered to be “Unchanged” in their neural activities. The responses of all increased neurons were then averaged after being normalized by the maximal response (Crowe et al., 2014; Dai and Wang, 2018; Hirokawa et al., 2019) following CNO/DCZ injection, and then plotted as a function of time to generate the normalized population response.
To enable in-vivo verification of the strategy via an opto-tagging approach, AAV virus encoding opsin ChR2 (AAV9-EF1α-DIO-ChR2-EYFP) was injected into the striatum with simultaneous nigral infusion of a retrograde AAV encoding Cre and rM3Ds (AAV8R12-G88P7-HA-rM3Ds-2A-Cre). A total volume of 27 μl (3 μl×9 sites) and 30 μl (3 μl×10 sites) were injected in the SNr and the striatum, respectively. A recording chamber was implanted above the striatum to allow optical stimulation and electrophysiological recording.
Optogenetic verification was conducted six weeks after virus injections. A 16-channel linear probe with an embedded optic fiber (Plexon Inc., Uprobe) was used to deliver light stimulation and record neural responses. A mechanical Microdrive (FlexMT, Alpha Omega, Nazareth, Israel) was used to mount and drive the probe. A blue laser (473 nm, Changchun New Industries Tech, MBL-III-473) was used to generate light stimulation, which was controlled by a DAQ board (National Instruments, PCIe-6321) through the MonkeyLogic toolbox (NIMH version).
Light pulses of 40 Hz that last for 500 ms were used to probe neurons' responses to optical stimulation. […] Responses from these optically identified cells were grouped to generate the normalized population response as a function of time.

[6] = system: striatonigral projection neurons (D1 MSNs); assay: Retrograde labeling of striatal MSNs after AAV injection into the SNr, EYFP+ cell counting; format: in vivo, mice
Procedure: To improve efficiency, multiple rounds of mutations of AAV capsids were performed on a series of different serotypes. Mutations were introduced at three sites in the AAV8 capsid protein to make AAV8R, including N385D, insertion of […] (SEQ ID NO: 31) at position 588, and TS711-7121N. Two additional mutations of V183E and N41 IS were incorporated into the AAV8R12 capsid protein (FIG. 1A). The labeling pattern of the AAV8R12 capsid and G88 promoter combination was determined.
was inserted at the N587-R588 position; two other point mutations of the AAV2 Cap protein were made to develop rAAV2-retro. Similar mutations were then placed at equivalent positions for four other AAV serotypes (FIGS. 1A-1C and 25, TABLE 1), AAV1/5/6/8 (FIG. 1A). […] When administered into the SNr, 4.86±0.22 times EYFP positive MSNs in mice infected by AAV8R-hSyn-EYFP were observed as compared to those infected by rAAV2-retro-hSyn-EYFP (FIG. 2A-2C).
Baseline infectivity of rAAV2-retro was approximately 0.2±0.03×10^4 cells per striatal hemisphere (using a hSyn promoter) (TABLE 2). […] Compared to the current standard retrograde AAV, rAAV2-retro, AAV8R12 labeled 7.72±0.78-times more MSNs after nigral delivery (FIG. 2B-2C, TABLE 1). […] The AAV8R12 was generated using the AAV8R plasmid as a template.
Mice were anesthetized with sodium pentobarbital (Nembutal; 80 mg/kg, i.p.), and then placed into a stereotaxic device (KOPF). Eye cream was applied on both corneas to avoid dehydration. The skull above the targeted areas was thinned with a dental drill and carefully removed. Injections were conducted with a 10 μL syringe connected to a 33-Gauge needle (Neuros; Hamilton), using a microsyringe pump (Legato 130, KD Scientific). A total volume of 200 nL virus was injected into the SNr at a speed of 20 nL/min. The coordinates for the SNr were 3.4 mm posterior, 1.3 mm lateral, 4.8 mm ventral to the bregma.
Images were acquired using a confocal microscope (Carl Zeiss, LSM880) and an Axiolmager. Z1 microscope with apotome (Carl Zeiss). Brain structures were identified microscopically and in digital photos using a mouse brain atlas. To analyze the number of EYFP+ cells in the striatum, slices from rostral to caudal striatum were used. Every sixth section was analyzed, and numbers of EYFP+ cells were multiplied by six to acquire the approximate total number and mean number of cells per animal. Images were processed using ImageJ (NIH, USA), and final quantifications were independently performed manually by two blinded experimenters.

[7] = system: MSNs in nucleus accumbens; assay: Retrograde labeling of accumbal MSNs after delivery into ventral pallidum or lateral hypothalamus; format: in vivo, mice; conditions: stereotaxic delivery into ventral pallidum or lateral hypothalamus

Molecule	motor-related behaviors in naïve monkeys [1]	alleviation of parkinsonian symptoms during long-term treatment (rM3Ds [2]; DCZ 0.3 mg/kg every other day)	reversal of parkinsonian symptoms (PD score) (rM3Ds [2]; MPP+ macaques with AAV8R12-G88P7-rM3Ds-2A-EYFP, DCZ 0.3 mg/kg i.m., L-Dopa/benserazide 20/5 mg/kg/day oral)	motor skills (hand to mouth movement) (rM3Ds [2]; MPP+ macaques, DCZ treatment)	tremor (EMG) (rM3Ds [2]; MPP+ macaques, DCZ treatment)	dyskinesia-like behaviors (dyskinesia score) (rM3Ds [2]; MPP+ macaques, long-term treatment)	window of efficacy after each dose (alleviating symptoms after drug administration) (rM3Ds [2]; after the drug reached steady-state efficacy (FIG. 24C))	speed of reversal of symptoms, DCZ compared with levodopa (rM3Ds [2]; initial phase of drug administration)	duration of effect (FIG. 18C) (rM3Ds [2]; n=3 monkeys)	effect of an extended period (4 months) of prior L-Dopa administration on DCZ treatment (rM3Ds [2]; one month washout, then DCZ 2 months)	blood levels of common liver- and kidney-related factors (ALT, AST, GGT, CREA, BUN) [3]	DCZ level in cerebrospinal fluid [4]	cells in caudate/putamen activated (FIG. 15G) (rM3Ds [5]; saline 17.9%)	cells in caudate/putamen inactivated (FIG. 15G) (rM3Ds [5]; saline 33.4%)	cells in caudate/putamen unchanged (FIG. 15G) (rM3Ds [5]; saline 48.7%)	Labeling Efficiency in Striatonigral Pathway ([6]; AAV8R capsid mutants, numbers of labeled neurons per animal)	EYFP positive / labeled MSNs compared to rAAV2-retro ([6]; after nigral delivery, hSyn-EYFP)	labeled striatonigral projection neurons (FIG. 2C), mean±SEM ([6]; capsid comparison, injection into SNr of wild type mice, n=3 mice per group)	Mean (AAVs with capsid and promoter) ([6]; labeled cells after nigral injection in mice, b188 refers to it as cells per striatal hemisphere, SD and SEM in own columns)	labeling of MSNs in nucleus accumbens [7]
CN1CCN(C2=Nc3ccccc3Nc3ccccc32)CC1 [DCZ, Deschloroclozapine]	did not alter motor-related behaviors in naïve monkeys	consistent during an 8-month continuous treatment	reversal of canonical parkinsonian symptoms in all tested monkeys; also recorded: comparable efficiency to L-Dopa	significant recovery of motor skills; also recorded: partially restored this motor skill	great reduced or even eliminated; also recorded: removed	dyskinesia-free	at least 24 hours	faster reversal of symptoms than levodopa; also recorded: reached stable efficacy faster than L-Dopa	over 24 hr	did not affect the efficacy of DCZ treatment or the absence of dyskinesia	remained stable	no detectable levels	41.9%	9.7%	48.4%	–	–	–	–	–
AAV8R12: AAV8R capsid mutant V183E + N411S; Cap SEQ ID NO: 59 (protein) MAADGYLPDWLEDNLSEGIREWWALKPGAPKPKANQQKQDDGRGLVLPGYKYLGPFNGLDKGEPVNAADAAALEHDKAYDQQLQAGDNPYLRYNHADAEFQERLQEDTSFGGNLGRAVFQAKKRVLEPLGLVEEGAKTAPGKKRPVEPSPQRSPDSSTGIGKKGQQPARKRLNFGQTGDSESEPDPQPLGEPPAAPSGVGPNTMAAGGGAPMADNNEGADGVGSSSGNWHCDSTWLGDRVITTSTRTWALPTYNNHLYKQISNGTSGGATNDNTYFGYSTPWGYFDFNRFHCHFSPRDWQRLINNNWGFRPKRLSFKLFNIQVKEVTQNEGTKTIANNLTSTIQVFTDSEYQLPYVLGSAHQGCLPPFPADVFMIPQYGYLTLNDGSQAVGRSSFYCLEYFPSQMLRTGNSFQFTYTFEDVPFHSSYAHSQSLDRLMNPLIDQYLYYLSRTQTTGGTANTQTLGFSQGGPNTMANQAKNWLPGPCYRQQRVSTTTGQNNNSNFAWTAGTKYHLNGRNSLANPGIAMATHKDDEERFFPSNGILIFGKQNAARDNADYSDVMLTSEEEIKTTNPVATEEYGIVADNLQRGNLADQDYTKTARQAATADVNSQGALPGMVWQNRDVYLQGPIWAKIPHTDGNFHPSPLMGGFGLKHPPPQILIKNTPVPADPPTTFNQSKLNSFITQYSTGQVSVEIEWELQKENSKRWNPEIQYTSNYYKSINVDFAVNTEGVYSEPRPIGTRYLTRNL	–	–	–	–	–	–	–	–	–	–	–	–	–	–	–	+++ (10k-25k)	7.72±0.78 times	16026±1654	16026	robust labeling of MSNs
